Source: the supplement of paper PMC11451515

Tested on: SEM cells
Assay: cell viability relative to DMSO control; higher = less cytotoxic
Details: 48 h
How it was run: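 Leukemia cells (NOMO1 or SEM, 500 cells/well; P12-Ichikawa, 1000 cells/well) were seeded in 5 μl in 1536-well plates after at least four passages of adaptation to each medium. They received library compounds in DMSO by pin dosing, 11 threefold points from 47 μM to 0.79 nM. Luminescence with CellTiter-Glo One was read after 48 h at 37°C. Viability is stated per plate relative to DMSO wells, with cell-free wells as background.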

[1] = HPLM + 10% dialyzed FBS, 0.000781 µM
[2] = HPLM + 10% dialyzed FBS, 0.00234 µM
[3] = HPLM + 10% dialyzed FBS, 0.00702 µM
[4] = HPLM + 10% dialyzed FBS, 0.0211 µM
[5] = HPLM + 10% dialyzed FBS, 0.0632 µM
[6] = HPLM + 10% dialyzed FBS, 0.19 µM
[7] = HPLM + 10% dialyzed FBS, 0.569 µM
[8] = HPLM + 10% dialyzed FBS, 1.71 µM
[9] = HPLM + 10% dialyzed FBS, 5.12 µM
[10] = HPLM + 10% dialyzed FBS, 15.4 µM
[11] = HPLM + 10% dialyzed FBS, 46.1 µM
[12] = RPMI 5 mM glucose + 10% dialyzed FBS, 0.000781 µM
[13] = RPMI 5 mM glucose + 10% dialyzed FBS, 0.00234 µM
[14] = RPMI 5 mM glucose + 10% dialyzed FBS, 0.00702 µM
[15] = RPMI 5 mM glucose + 10% dialyzed FBS, 0.0211 µM
[16] = RPMI 5 mM glucose + 10% dialyzed FBS, 0.0632 µM
[17] = RPMI 5 mM glucose + 10% dialyzed FBS, 0.19 µM
[18] = RPMI 5 mM glucose + 10% dialyzed FBS, 0.569 µM
[19] = RPMI 5 mM glucose + 10% dialyzed FBS, 1.71 µM
[20] = RPMI 5 mM glucose + 10% dialyzed FBS, 5.12 µM
[21] = RPMI 5 mM glucose + 10% dialyzed FBS, 15.4 µM
[22] = RPMI 5 mM glucose + 10% dialyzed FBS, 46.1 µM
[23] = RPMI 5 mM glucose + 10% FBS, 0.000781 µM
[24] = RPMI 5 mM glucose + 10% FBS, 0.00234 µM
[25] = RPMI 5 mM glucose + 10% FBS, 0.00702 µM
[26] = RPMI 5 mM glucose + 10% FBS, 0.0211 µM
[27] = RPMI 5 mM glucose + 10% FBS, 0.0632 µM
[28] = RPMI 5 mM glucose + 10% FBS, 0.19 µM
[29] = RPMI 5 mM glucose + 10% FBS, 0.569 µM
[30] = RPMI 5 mM glucose + 10% FBS, 1.71 µM
[31] = RPMI 5 mM glucose + 10% FBS, 5.12 µM
[32] = RPMI 5 mM glucose + 10% FBS, 15.4 µM
[33] = RPMI 5 mM glucose + 10% FBS, 46.1 µM

| SMILES | cell viability [1] | cell viability [2] | cell viability [3] | cell viability [4] | cell viability [5] | cell viability [6] | cell viability [7] | cell viability [8] | cell viability [9] | cell viability [10] | cell viability [11] | cell viability [12] | cell viability [13] | cell viability [14] | cell viability [15] | cell viability [16] | cell viability [17] | cell viability [18] | cell viability [19] | cell viability [20] | cell viability [21] | cell viability [22] | cell viability [23] | cell viability [24] | cell viability [25] | cell viability [26] | cell viability [27] | cell viability [28] | cell viability [29] | cell viability [30] | cell viability [31] | cell viability [32] | cell viability [33] |
| --- | --- | --- | --- | --- | --- | --- | --- | --- | --- | --- | --- | --- | --- | --- | --- | --- | --- | --- | --- | --- | --- | --- | --- | --- | --- | --- | --- | --- | --- | --- | --- | --- | --- |
| C=CCn1c(=O)c2cnc(Nc3ccc(N4CCN(C)CC4)cc3)nc2n1-c1cccc(C(C)(C)O)n1 | 117% | 118% | 127% | 110% | 98.6% | 81.4% | 61.4% | 28.3% | 25.7% | 24.5% | 29.4% | 111% | 119% | 135% | 93.5% | 90.8% | 64.6% | 52.7% | 26.3% | 15.7% | 19.3% | 21.8% |  |  |  |  |  |  |  |  |  |  |  |
| Cc1c(C(=O)Nc2cccc(C(F)(F)F)c2)cc(-c2ccccc2)n1CCCN1CCOCC1 | 99.2% | 112% | 106% | 105% | 111% | 96.3% | 111% | 99.5% | 90.3% | 93.6% | 62.8% | 104% | 111% | 121% | 113% | 121% | 115% | 109% | 109% | 95% | 92.6% | 45.8% | 89.6% | 106% | 119% | 116% | 110% | 101% | 122% | 101% | 115% | 93.6% | 50.9% |
| O=C1NC(=O)/C(=C/c2cccc(C(F)(F)F)c2)S1 | 100% | 93.3% | 96.5% | 108% | 101% | 102% | 100% | 100% | 107% | 89.1% | 66.7% | 93.7% | 106% | 106% | 115% | 99.6% | 94.4% | 102% | 108% | 109% | 102% | 62.5% | 99.5% | 100% | 110% | 108% | 112% | 108% | 115% | 104% | 108% | 98.9% | 59.7% |
| O=C1N\2CCC3=C([NH]C4=C3C=CC=C4)C2=N/C5=CC=CC=C15 | 96% | 102% | 114% | 118% | 92.8% | 123% | 123% | 115% | 110% | 90.8% | 76.8% | 123% | 112% | 142% | 135% | 121% | 153% | 147% | 135% | 151% | 101% | 53.6% | 124% | 113% | 137% | 134% | 109% | 126% | 122% | 147% | 144% | 95% | 83.7% |
| CC(C)[C@H](CO)Nc1nc(Nc2cccc(Cl)c2)c2ncn(C(C)C)c2n1 | 88.8% | 88.2% | 97.6% | 101% | 110% | 99.4% | 69.8% | 49.4% | 3.37% | 1.22% | 2.26% | 98.6% | 107% | 91.5% | 104% | 106% | 93.5% | 35.7% | 18.9% | 1.89% | 0.704% | 1.74% | 86.7% | 112% | 101% | 95.4% | 71% | 86.4% | 21.6% | 4.3% | 1.34% | 0.473% | 1.1% |
| CCCCCCCCc1ccc(CCC(N)(CO)CO)cc1 | 103% | 108% | 108% | 111% | 101% | 120% | 110% | 118% | 97.1% | 83.2% | 2.73% | 105% | 116% | 117% | 110% | 104% | 110% | 115% | 109% | 107% | 124% | 3.38% | 99.4% | 115% | 107% | 120% | 122% | 111% | 115% | 121% | 93.7% | 107% | 2.59% |
| CC(NCc1ccc2c(c1)[nH]/c(=N\C(=O)c1ccc(-c3cn[nH]c3)s1)n2CC(C)(C)O)C(C)(C)C (stereo not drawn) | 112% | 89.6% | 62.7% | 52.4% | 47.7% | 41% | 24.9% | 10.9% | 8.32% | 2.2% | 2.08% | 122% | 85.4% | 79.8% | 42.4% | 45.7% | 41.5% | 27.2% | 16.2% | 6.16% | 1.94% | 1.53% | 96.7% | 112% | 76.3% | 58.5% | 48% | 36.5% | 31.3% | 14.9% | 4.21% | 1.66% | 1.98% |
| NC(=O)c1cccc(N)c1 | 92.8% | 104% | 38.7% | 112% | 116% | 120% | 113% | 129% | 115% | 106% | 118% | 79.9% | 115% | 27.4% | 95.4% | 102% | 98.2% | 105% | 94.4% | 96.3% | 117% | 99.4% | 72.3% | 106% | 10.3% | 79.6% | 84.5% | 97.8% | 82.9% | 85.5% | 80.6% | 104% | 81.6% |
